Reference: the supplement of paper PMC12533247
± gives the standard deviation of the averaged measurements.

Columns and labels:
[1] = tested on: HSV-1 K26-GFP infected 3D skin equivalent; assay: % activity on HSV-1 GFP signal (0 = infected DMSO control, -100 = uninfected control); higher = higher signal (negative = inhibition / toxicity); conditions: time (h post infection): 48
Protocol: (§1)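 Triplicate dose-response (0.04 to 10 uM) of 11 top compounds in 3D bioprinted skin equivalents (submerged and ALI models) infected with GFP-HSV-1 K26 at MOI 0.1 and fixed at 48 hpi. GFP (virus) and tdTomato (fibroblast viability) signals are normalised to per-plate controls.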

[2] = tested on: HSV-1 K26-GFP infected 3D skin equivalent; assay: % change of tdTomato fibroblast signal relative to infected DMSO control; higher = higher signal (negative = inhibition / toxicity); conditions: time (h post infection): 48
Protocol: as §1

[3] = tested on: HSV-1 K26-GFP infected primary human skin cells; assay: % change of HSV-1 GFP signal vs untreated infected cells; higher = less antiviral inhibition; conditions: cell type: primary dermal fibroblasts, time (h post infection): 48
Protocol: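 2D primary donor-derived dermal fibroblasts infected with GFP-HSV-1 K26 at MOI 1, treated 1 h later with compound dilutions and read at 48 hpi on IncuCyte. GFP integrated intensity is normalised to mock-infected and untreated infected wells (% change; -100 = full inhibition).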

[4] = tested on: HSV-1 K26-GFP infected primary human skin cells; assay: as above
Protocol: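 2D primary donor-derived keratinocytes (read at 20 hpi) and donor-matched dermal fibroblasts (read at 48 hpi) infected with GFP-HSV-1 K26 at MOI 1 and treated 1 h later with compound dilutions. IncuCyte GFP integrated intensity is normalised by subtracting mock-infected wells and dividing by untreated infected wells, shown as % change (-100 = full inhibition).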

COc1ccc(-c2nc(N3CCOCC3)c3sc(CN(C)c4ncc(C(=O)NO)cn4)cc3n2)cn1 [Fimepinostat]
Conditions | % activity on HSV-1 GFP signal [%] | % change of HSV-1 GFP signal [%] | % change of tdTomato fibroblast signal [%]
[1], 0.041152 µM, model: ALI | -85.1 ± 18 | – | –
[1], 0.041152 µM, model: submerged | 2.37 ± 11 | – | –
[1], 0.123457 µM, model: ALI | -97.4 ± 11 | – | –
[1], 0.123457 µM, model: submerged | 6.63 ± 8.2 | – | –
[1], 0.37037 µM, model: ALI | -79.6 ± 15 | – | –
[1], 0.37037 µM, model: submerged | -1.58 ± 24 | – | –
[1], 1.111111 µM, model: ALI | -64.2 ± 7.7 | – | –
[1], 1.111111 µM, model: submerged | -31.5 ± 15 | – | –
[1], 3.33333 µM, model: ALI | -78.3 ± 10 | – | –
[1], 3.33333 µM, model: submerged | -75.6 ± 8.3 | – | –
[1], 10 µM, model: ALI | -88.6 ± 2.1 | – | –
[1], 10 µM, model: submerged | -87.4 ± 7.2 | – | –
[2], 0.041152 µM, model: ALI | – | – | -7.82 ± 20
[2], 0.041152 µM, model: submerged | – | – | 12.3 ± 16
[2], 0.123457 µM, model: ALI | – | – | -14 ± 5.4
[2], 0.123457 µM, model: submerged | – | – | 9.59 ± 5.7
[2], 0.37037 µM, model: ALI | – | – | -3.36 ± 5.6
[2], 0.37037 µM, model: submerged | – | – | 12.7 ± 13
[2], 1.111111 µM, model: ALI | – | – | -5.66 ± 9
[2], 1.111111 µM, model: submerged | – | – | 8.55 ± 11
[2], 3.33333 µM, model: ALI | – | – | -20.2 ± 5.3
[2], 3.33333 µM, model: submerged | – | – | -1.39 ± 20
[2], 10 µM, model: ALI | – | – | -11 ± 5.8
[2], 10 µM, model: submerged | – | – | -3.36 ± 9.8
[3], 0.003 µM, donor: 3 | – | 27.2 ± 26 | –
[3], 0.003 µM, donor: 4 | – | -1.5 ± 7.9 | –
[3], 0.0091 µM, donor: 3 | – | 32.4 ± 31 | –
[3], 0.0091 µM, donor: 4 | – | -0.607 ± 6 | –
[3], 0.0274 µM, donor: 3 | – | 30.4 ± 28 | –
[3], 0.0274 µM, donor: 4 | – | -1.06 ± 14 | –
[3], 0.0823 µM, donor: 3 | – | 27.5 ± 28 | –
[3], 0.0823 µM, donor: 4 | – | 3.49 ± 9.3 | –
[3], 0.2469 µM, donor: 3 | – | 29.4 ± 28 | –
[3], 0.2469 µM, donor: 4 | – | -2.47 ± 6.9 | –
[3], 0.7407 µM, donor: 3 | – | 21.4 ± 22 | –
[3], 0.7407 µM, donor: 4 | – | -9.92 ± 24 | –
[3], 2.2222 µM, donor: 3 | – | 14.6 ± 16 | –
[3], 2.2222 µM, donor: 4 | – | -5.85 ± 18 | –
[3], 6.6667 µM, donor: 3 | – | 11.3 ± 17 | –
[3], 6.6667 µM, donor: 4 | – | -11.4 ± 14 | –
[3], 20 µM, donor: 3 | – | 8.87 ± 9.2 | –
[3], 20 µM, donor: 4 | – | -9.02 ± 15 | –
[3], 60 µM, donor: 3 | – | 7.95 ± 12 | –
[3], 60 µM, donor: 4 | – | -4.24 ± 17 | –

% change of HSV-1 GFP signal [%], [4]
Conditions | 0.003 µM | 0.0091 µM | 0.0274 µM | 0.0823 µM | 0.2469 µM | 0.7407 µM | 2.2222 µM | 6.6667 µM | 20 µM | 60 µM
cell type: primary dermal fibroblasts, donor: 5, time (h post infection): 48 | -12.8 ± 4.4 | -13.7 ± 5.4 | -14.2 ± 5.5 | -12.3 ± 3.9 | -12 ± 6.5 | -18.4 ± 12 | -25.6 ± 15 | -32.6 ± 16 | -34.1 ± 16 | -28.4 ± 16
cell type: primary keratinocytes, donor: 3, time (h post infection): 20 | 6.27 ± 19 | -3.11 ± 18 | 2.91 ± 18 | 1.02 ± 22 | -16.3 ± 15 | -33.2 ± 14 | -41.3 ± 12 | -43 ± 15 | -64.7 ± 12 | -48.6 ± 7.7
cell type: primary keratinocytes, donor: 4, time (h post infection): 20 | -14.2 ± 39 | -25.2 ± 46 | -17.4 ± 42 | -25 ± 40 | -33 ± 54 | -64.8 ± 23 | -69.2 ± 17 | -76.4 ± 15 | -89.2 ± 12 | -72.7 ± 16
cell type: primary keratinocytes, donor: 5, time (h post infection): 20 | -6.73 ± 19 | -26.4 ± 10 | -15.1 ± 12 | -24.8 ± 16 | -44.7 ± 4.9 | -48 ± 9.1 | -58.2 ± 2.6 | -64.6 ± 2.8 | -70.5 ± 3.6 | -57.8 ± 5.4

CC1(C)CC(=O)c2c(C(F)(F)F)nn(-c3ccc(C(N)=O)c(N[C@H]4CC[C@H](O)CC4)c3)c2C1 [SNX-2112]
Conditions | % activity on HSV-1 GFP signal [%] | % change of HSV-1 GFP signal [%] | % change of tdTomato fibroblast signal [%]
[1], 0.041152 µM, model: ALI | -92.8 ± 5 | – | –
[1], 0.041152 µM, model: submerged | -58.7 ± 8.8 | – | –
[1], 0.123457 µM, model: ALI | -99.7 ± 5.3 | – | –
[1], 0.123457 µM, model: submerged | -81.7 ± 5.9 | – | –
[1], 0.37037 µM, model: ALI | -98.9 ± 6.7 | – | –
[1], 0.37037 µM, model: submerged | -98.1 ± 7.8 | – | –
[1], 1.111111 µM, model: ALI | -103 ± 4.6 | – | –
[1], 1.111111 µM, model: submerged | -101 ± 4.8 | – | –
[1], 3.33333 µM, model: ALI | -98.4 ± 6 | – | –
[1], 3.33333 µM, model: submerged | -105 ± 3.8 | – | –
[1], 10 µM, model: ALI | -107 ± 7.2 | – | –
[1], 10 µM, model: submerged | -102 ± 6.5 | – | –
[2], 0.041152 µM, model: ALI | – | – | 0.975 ± 12
[2], 0.041152 µM, model: submerged | – | – | -4.63 ± 9.5
[2], 0.123457 µM, model: ALI | – | – | -7.26 ± 3.1
[2], 0.123457 µM, model: submerged | – | – | -2.18 ± 9.6
[2], 0.37037 µM, model: ALI | – | – | -17.9 ± 3.2
[2], 0.37037 µM, model: submerged | – | – | -23.3 ± 11
[2], 1.111111 µM, model: ALI | – | – | -33.5 ± 9.5
[2], 1.111111 µM, model: submerged | – | – | -52.2 ± 3.6
[2], 3.33333 µM, model: ALI | – | – | -36.3 ± 4.9
[2], 3.33333 µM, model: submerged | – | – | -55 ± 2.7
[2], 10 µM, model: ALI | – | – | -32.3 ± 6.5
[2], 10 µM, model: submerged | – | – | -50.9 ± 1.7
[3], 0.001 µM, donor: 3 | – | 3.58 ± 4.6 | –
[3], 0.001 µM, donor: 4 | – | 7.21 ± 14 | –
[3], 0.003 µM, donor: 3 | – | 2.41 ± 10 | –
[3], 0.003 µM, donor: 4 | – | 7.68 ± 19 | –
[3], 0.0091 µM, donor: 3 | – | 3.09 ± 24 | –
[3], 0.0091 µM, donor: 4 | – | 10 ± 30 | –
[3], 0.0274 µM, donor: 3 | – | -21.5 ± 25 | –
[3], 0.0274 µM, donor: 4 | – | -8.2 ± 12 | –
[3], 0.0823 µM, donor: 3 | – | -87.9 ± 5.2 | –
[3], 0.0823 µM, donor: 4 | – | -77.6 ± 1.4 | –
[3], 0.2469 µM, donor: 3 | – | -98.67 ± 0.4 | –
[3], 0.2469 µM, donor: 4 | – | -98.8 ± 1 | –
[3], 0.7407 µM, donor: 3 | – | -99.34 ± 0.5 | –
[3], 0.7407 µM, donor: 4 | – | -99.59 ± 0.4 | –
[3], 2.2222 µM, donor: 3 | – | -99.32 ± 0.49 | –
[3], 2.2222 µM, donor: 4 | – | -99.73 ± 0.3 | –
[3], 6.6667 µM, donor: 3 | – | -99.47 ± 0.27 | –
[3], 6.6667 µM, donor: 4 | – | -99.66 ± 0.37 | –
[3], 20 µM, donor: 3 | – | -99.48 ± 0.42 | –
[3], 20 µM, donor: 4 | – | -99.71 ± 0.22 | –

% change of HSV-1 GFP signal [%], [4]
Conditions | 0.001 µM | 0.003 µM | 0.0091 µM | 0.0274 µM | 0.0823 µM | 0.2469 µM | 0.7407 µM | 2.2222 µM | 6.6667 µM | 20 µM
cell type: primary dermal fibroblasts, donor: 5, time (h post infection): 48 | – | -7.73 ± 2.1 | -15.6 ± 11 | -26.2 ± 14 | -67.5 ± 16 | -95.5 ± 4.4 | -98.7 ± 1.3 | -98.8 ± 1.2 | -99.29 ± 0.7 | -98.8 ± 1.5
cell type: primary keratinocytes, donor: 3, time (h post infection): 20 | 9.13 ± 14 | 13.4 ± 18 | 18.9 ± 2.4 | 18.3 ± 9.1 | -27.7 ± 20 | -93.6 ± 2.1 | -99.06 ± 0.93 | -99.56 ± 0.19 | -99.47 ± 0.68 | -99.7 ± 0.12
cell type: primary keratinocytes, donor: 4, time (h post infection): 20 | 9.33 ± 10 | 1.99 ± 7.4 | -3 ± 12 | -5.23 ± 6.6 | -58 ± 5.7 | -98.23 ± 0.39 | -99.906 ± 0.026 | -100.1 ± 0.19 | -100.02 ± 0.027 | -100 ± 0.14
cell type: primary keratinocytes, donor: 5, time (h post infection): 20 | 8.24 ± 6.6 | -1.8 ± 5.6 | -0.244 ± 3.4 | -15.1 ± 6.1 | -81.52 ± 0.11 | -98.96 ± 0.45 | -99.957 ± 0.0052 | -99.916 ± 0.066 | -99.948 ± 0.011 | -99.936 ± 0.076
